Laboratory results: paper PMC6969517 (Proceedings of the National Academy of Sciences of the …, 2019)

Molecular target: T1, ShkA (Caulobacter vibrioides, UniProt Q9ABT2)
T1 sequence (Q9ABT2 1-514): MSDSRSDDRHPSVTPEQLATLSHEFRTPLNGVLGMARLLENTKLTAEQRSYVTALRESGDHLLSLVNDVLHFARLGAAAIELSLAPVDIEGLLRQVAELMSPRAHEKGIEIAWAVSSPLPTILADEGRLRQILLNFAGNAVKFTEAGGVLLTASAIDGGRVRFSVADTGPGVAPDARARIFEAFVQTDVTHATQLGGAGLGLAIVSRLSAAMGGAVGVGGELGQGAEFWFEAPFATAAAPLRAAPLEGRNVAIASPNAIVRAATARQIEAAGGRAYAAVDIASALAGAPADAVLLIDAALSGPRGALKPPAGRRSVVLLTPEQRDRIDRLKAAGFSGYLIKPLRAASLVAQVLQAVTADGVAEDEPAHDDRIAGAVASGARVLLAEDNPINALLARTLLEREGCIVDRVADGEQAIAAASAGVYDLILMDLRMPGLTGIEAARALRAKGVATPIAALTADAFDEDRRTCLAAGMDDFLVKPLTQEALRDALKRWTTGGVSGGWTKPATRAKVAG
Test: FCA and ITC
Assay type: biochemical

Ki: ~60 µM
Compound: Nc1ncnc2c1ncn2[C@@H]1O[C@H](COP(=O)(O)OP(=O)(O)O)[C@@H](O)[C@H]1O [ADP]
